Among the data in the supplement of paper PMC7840683 are LDH release cytotoxicity values, retold here.

± gives the standard deviation of the averaged measurements.

The test system of this experiment is HepaRG. Description: LDH release cytotoxicity, % of total lysis control; higher = more cytotoxic. The conditions noted are these: 48 h. In a few lines: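 On collagen I-coated 96-well plates, single-lot HepaRG cells were exposed for 48 h, in duplicate, to eight-point half-log series of test chemicals beginning at 100 µM. The exposure medium was serum-free induction medium with 0.5% DMSO, and total lysis wells got 0.1% Triton X. Resorufin fluorescence from the CytoTox-ONE reaction, read on a Tecan Safire, reported LDH in 50 µL of spent medium. Percent cytotoxicity came from normalization to on-plate vehicle and total lysis controls, averaged over the duplicates.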

In the case of `C#CC1(O)CCC2C3CCC4=CC(=O)CCC4C3CCC21CC` (centres undefined) [Levonorgestrel], the LDH release cytotoxicity by setting is: (0.03162 µM) -1.38 ± 1.4%; (0.1 µM) -1.25 ± 1.1%; (0.3162278 µM) -1.67 ± 1.2%; (1 µM) -1.92 ± 0.3%; (3.16228 µM) -1.95 ± 0.12%; (10 µM) -1.02 ± 0.035%. Moreover, the LDH release cytotoxicity (31.6228 µM) was -0.294 ± 1.1% and the LDH release cytotoxicity (100 µM) is 0.81 ± 0.17%.
`ClC1=C(Cl)C2(Cl)C3C(Cl)C=CC3C1(Cl)C2(Cl)Cl` (centres undefined) [Heptachlor]: the LDH release cytotoxicity is, setting by setting: (0.031623 µM) 0.0329 ± 0.088%; (0.1 µM) -3.41 ± 1.6%; (0.316228 µM) -2.78 ± 0.4%; (1 µM) -2.89 ± 2.9%; (3.16228 µM) -2.85 ± 1.9%; (10 µM) -1.78 ± 2.6%. Further, the LDH release cytotoxicity (31.6228 µM) was -1.45 ± 2.4% and the LDH release cytotoxicity (100 µM) was -0.326 ± 1.3%.
Turning to `Cn1sc(Cl)cc1=O` [5-Chloro-2-methyl-3(2H)-isothiazolone], the LDH release cytotoxicity reads like this: (0.03162 µM) -0.707 ± 0.6%; (0.1 µM) -1.2 ± 0.15%; (0.3162278 µM) -0.511 ± 0.28%; (1 µM) -1.23 ± 0.16%; (3.16228 µM) -0.949 ± 0.12%; (10 µM) -0.788 ± 0.64%. Besides, the LDH release cytotoxicity reads like this: (31.6228 µM) -1.56 ± 0.12%; (100 µM) -1.76 ± 0.26%.
As for `O=Cc1ccco1` [Furfural], the LDH release cytotoxicity is -1.57 ± 0.78% (0.03162 µM); -2.07 ± 1.7% (0.1 µM); -2.64 ± 0.63% (0.3162278 µM); -3.82 ± 2.1% (1 µM); -4.51 ± 0.77% (3.16228 µM); -0.135 ± 1.1% (10 µM). The LDH release cytotoxicity reads like this: (31.6228 µM) -0.567 ± 0.12%; (100 µM) 3.05 ± 1.1%.
Turning to `OCC(CO)(CBr)CBr` [Pentaerythritol dibromide], the LDH release cytotoxicity reads like this: (0.03162 µM) -0.95 ± 0.41%; (0.1 µM) -1.43 ± 0.67%; (0.3162278 µM) -2.05 ± 0.21%; (1 µM) -2.19 ± 0.11%; (3.16228 µM) -1.68 ± 0.31%; (10 µM) -1.56 ± 0.1%. Also, the LDH release cytotoxicity (31.6228 µM) was -0.856 ± 0.31% and the LDH release cytotoxicity (100 µM) stood at 0.8 ± 1.4%.
Take `CC(C)(O)c1ccc(CNC(=O)c2cccnc2Oc2ccc3nonc3c2)cc1`: the LDH release cytotoxicity (0.03162 µM) is -0.138 ± 0.4%; the LDH release cytotoxicity (0.1 µM) is -0.0235 ± 1.2%; the LDH release cytotoxicity (0.3162278 µM) was -1.43 ± 0.089%; the LDH release cytotoxicity (1 µM) was -1.1 ± 0.77%; the LDH release cytotoxicity (3.16228 µM) was -0.724 ± 0.6%; the LDH release cytotoxicity (10 µM) was -0.975 ± 0.052%. Also, the LDH release cytotoxicity (31.6228 µM) was -1.98 ± 0.84% and the LDH release cytotoxicity (100 µM) is -2.05 ± 0.18%.
Consider `CC(C)(O)C(=O)Nc1ccc([N+](=O)[O-])c(C(F)(F)F)c1` [Hydroxyflutamide], for which the LDH release cytotoxicity (0.01581 µM) is -1.79 ± 0.91%; the LDH release cytotoxicity (0.05 µM) was -0.825 ± 0.75%; the LDH release cytotoxicity (0.1581139 µM) is -0.846 ± 0.13%; the LDH release cytotoxicity (0.5 µM) is -1.16 ± 0.28%; the LDH release cytotoxicity (1.5811388 µM) is -0.0206 ± 0.13%; the LDH release cytotoxicity (5 µM) amounted to 0.0482 ± 0.13%. In addition, the LDH release cytotoxicity is -1.19 ± 0.34% (15.8114 µM) and 2.46 ± 1.6% (50 µM).
On to `CCCCCCCCO` [1-Octanol], for which the LDH release cytotoxicity is, setting by setting: (0.03162 µM) -0.769 ± 1%; (0.1 µM) -1.52 ± 0.36%; (0.3162278 µM) -0.614 ± 0.069%; (1 µM) -1.76 ± 0.5%; (3.16228 µM) -2.15 ± 1.1%; (10 µM) -1.49 ± 0.68%. Moreover, the LDH release cytotoxicity came out at 1.06 ± 0.25% (31.6228 µM) and 2.86 ± 2.5% (100 µM).
`Cc1ccc(C)c(O)c1` [2,5-Dimethylphenol]: the LDH release cytotoxicity (0.03162 µM) was -1.02 ± 1%; the LDH release cytotoxicity (0.1 µM) is -1.37 ± 0.38%; the LDH release cytotoxicity (0.3162278 µM) was -1.74 ± 0.34%; the LDH release cytotoxicity (1 µM) is -1.34 ± 0.19%; the LDH release cytotoxicity (3.16228 µM) is -1.4 ± 0.44%; the LDH release cytotoxicity (10 µM) was -0.854 ± 0.043%. For the same compound, the LDH release cytotoxicity runs as follows: (31.6228 µM) -0.822 ± 0.1%; (100 µM) 0.0909 ± 0.18%.
`O=C(O)Cc1ccccc1Nc1c(Cl)cccc1Cl` [Diclofenac sodium]: the LDH release cytotoxicity was 0.371 ± 0.76% (0.03162 µM); -0.605 ± 0.41% (0.1 µM); -1.36 ± 0.43% (0.3162278 µM); -0.678 ± 0.21% (1 µM); -0.378 ± 0.25% (3.16228 µM); -0.578 ± 0.3% (10 µM). Further, the LDH release cytotoxicity turned out to be 1.19 ± 0.14% (31.6228 µM) and 12 ± 1% (100 µM).
With `CN=C1C=NN(c2cccc(C(F)(F)F)c2)C(=O)C1Cl` (centres undefined) [Norflurazon], the LDH release cytotoxicity was -0.275 ± 1.1% (0.03162 µM); -1.08 ± 0.48% (0.1 µM); -0.0751 ± 2% (0.3162278 µM); 0.0859 ± 2.5% (1 µM); -1.2 ± 0.27% (3.16228 µM); -0.411 ± 0.49% (10 µM). Moreover, the LDH release cytotoxicity worked out at 0.0481 ± 1.5% (31.6228 µM) and 1.81 ± 1.8% (100 µM).
On to `CC(C)OC(=O)Nc1cccc(Cl)c1` [Chlorpropham], for which the LDH release cytotoxicity is, setting by setting: (0.03162 µM) -1.82 ± 0.15%; (0.1 µM) -0.0252 ± 1.6%; (0.3162278 µM) -2.28 ± 0.48%; (1 µM) -2.1 ± 0.63%; (3.16228 µM) -1.45 ± 0.039%; (10 µM) -1.72 ± 0.48%. The LDH release cytotoxicity by setting is: (31.6228 µM) -1.01 ± 0.056%; (100 µM) 1.41 ± 0.48%.
In the case of `CC(C)C(=O)OCC(C)(C)C(OC(=O)C(C)C)C(C)C` (centres undefined) [2,2,4-Trimethyl-1,3-pentanediol diisobutyrate], the LDH release cytotoxicity (0.03162 µM) is -1.97 ± 1.2%; the LDH release cytotoxicity (0.1 µM) is -3.46 ± 0.69%; the LDH release cytotoxicity (0.3162278 µM) was -3.48 ± 0.61%; the LDH release cytotoxicity (1 µM) is -2.95 ± 0.15%; the LDH release cytotoxicity (3.16228 µM) was -3.05 ± 0.42%; the LDH release cytotoxicity (10 µM) is -2.18 ± 0.16%. Besides, the LDH release cytotoxicity (31.6228 µM) was -2.05 ± 0.51% and the LDH release cytotoxicity (100 µM) was 0.686 ± 0.88%.
Regarding `CSC(C)=NOC(=O)N(C)SN(C)C(=O)ON=C(C)SC` [Thiodicarb], the LDH release cytotoxicity reads like this: (0.03162 µM) 0.264 ± 0.45%; (0.1 µM) 0.37 ± 0.55%; (0.3162278 µM) -0.268 ± 0.33%; (1 µM) 0.546 ± 0.75%; (3.16228 µM) 0.811 ± 0.23%; (10 µM) 1.07 ± 0.71%. Besides, the LDH release cytotoxicity worked out at 1.06 ± 0.2% (31.6228 µM) and 1.18 ± 0.48% (100 µM).
On to `COP(=O)(OC)OC=C(Cl)Cl` [Dichlorvos], for which the LDH release cytotoxicity is, setting by setting: (0.03162 µM) -0.581 ± 0.43%; (0.1 µM) -0.968 ± 0.24%; (0.3162278 µM) -1.1 ± 0.092%; (1 µM) -0.845 ± 0.11%; (3.16228 µM) -0.267 ± 0.61%; (10 µM) -0.149 ± 0.26%. The LDH release cytotoxicity was -0.147 ± 0.48% (31.6228 µM) and 2.09 ± 0.43% (100 µM).
In the case of `CCCCN(CCCC)SN(C)C(=O)Oc1cccc2c1OC(C)(C)C2` [Carbosulfan], the LDH release cytotoxicity reads like this: (0.03162 µM) -3.56 ± 2.3%; (0.1 µM) -0.722 ± 0.37%; (0.3162278 µM) -0.938 ± 0.067%; (1 µM) -0.712 ± 0.067%; (3.16228 µM) 0.429 ± 0.12%; (10 µM) 0.717 ± 0.68%. Besides, the LDH release cytotoxicity was -0.247 ± 0.45% (31.6228 µM) and 0.466 ± 0.2% (100 µM).
With `CC(C)(C)C(O)(CCc1ccc(Cl)cc1)Cn1cncn1` (centres undefined) [Tebuconazole], the LDH release cytotoxicity reads like this: (0.03162 µM) -1.4 ± 0.64%; (0.1 µM) -0.0947 ± 0.069%; (0.3162278 µM) -1.08 ± 1.2%; (1 µM) -1.1 ± 1.6%; (3.16228 µM) -0.155 ± 0.14%; (10 µM) -0.0217 ± 1.5%. For the same compound, the LDH release cytotoxicity reads like this: (31.6228 µM) 1.4 ± 1%; (100 µM) 16.5 ± 0.49%.
Regarding `O=C(O)CCN(C1(C(=O)NO)CCCC1)S(=O)(=O)c1ccc(Oc2ccc(F)cc2)cc1`, the LDH release cytotoxicity is, setting by setting: (0.03162 µM) -0.305 ± 0.084%; (0.1 µM) -1.01 ± 0.31%; (0.3162278 µM) -0.589 ± 0.48%; (1 µM) -0.176 ± 0.047%; (3.16228 µM) -0.0966 ± 0.082%; (10 µM) 0.986 ± 0.25%. Besides, the LDH release cytotoxicity reads like this: (31.6228 µM) 0.193 ± 0.77%; (100 µM) 1.19 ± 0.31%.
